# Publication PMC11570809, “Novel N-phenyl-2-(aniline) benzamide hydrochloride salt development for colon cancer therapy” (Frontiers in Pharmacology, 2024)
# Counter-ions that a name gives are not always drawn. Like-named read-outs stand apart in the source and are kept apart here.
# What was measured:
# SK-Hep-1 = assay: MTT anti-proliferation assay, SK-Hep-1; type: cell-based, human; conditions: read-out: IC50 ± SD SK-Hep-1
# Topo I = target: T1, Topo I (Bos taurus, UniProt F1MN93); assay: Topo I-mediated DNA relaxation assay; type: biochemical; conditions: relaxation of supercoiled pBR322
# T1 construct: purchased Takara Biotechnology, Dalian, China
# T1 sequence (F1MN93 1-767): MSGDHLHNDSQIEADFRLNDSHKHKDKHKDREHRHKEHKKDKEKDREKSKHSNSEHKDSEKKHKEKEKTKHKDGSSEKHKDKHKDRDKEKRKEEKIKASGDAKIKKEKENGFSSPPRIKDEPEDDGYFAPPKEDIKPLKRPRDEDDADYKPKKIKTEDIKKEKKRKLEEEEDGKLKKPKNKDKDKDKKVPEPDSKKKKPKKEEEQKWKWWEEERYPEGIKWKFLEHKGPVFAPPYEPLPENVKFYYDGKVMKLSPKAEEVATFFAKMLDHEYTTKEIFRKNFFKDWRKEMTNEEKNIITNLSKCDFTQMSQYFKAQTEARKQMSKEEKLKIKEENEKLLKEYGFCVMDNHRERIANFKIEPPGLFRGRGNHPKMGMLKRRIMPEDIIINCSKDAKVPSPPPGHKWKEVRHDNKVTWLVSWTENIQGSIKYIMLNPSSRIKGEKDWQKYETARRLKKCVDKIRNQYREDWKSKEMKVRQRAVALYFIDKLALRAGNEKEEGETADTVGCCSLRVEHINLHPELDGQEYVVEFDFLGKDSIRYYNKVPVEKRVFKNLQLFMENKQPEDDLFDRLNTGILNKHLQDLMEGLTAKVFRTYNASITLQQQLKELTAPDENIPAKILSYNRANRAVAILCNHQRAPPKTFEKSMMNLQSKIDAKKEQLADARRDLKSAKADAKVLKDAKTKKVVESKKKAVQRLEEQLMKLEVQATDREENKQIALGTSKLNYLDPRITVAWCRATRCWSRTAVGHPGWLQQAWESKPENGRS
# Protocol: In brief, 2 μL Topo I Assay Buffer, 2 μL 0.1% BSA solution, 1 μL 1 U/μL Topo I solution, 0.2 μL test compound solution, and 0.5 μL DNA solution (0.25 μg) were added orderly with the corresponding volume of ultrapure water to make the above system volume 20 μL (Takara Biotechnology, Dalian, China). The above system was incubated at 37°C, the incubation continued for 45 min, and then 10 μL of a mixture of equal phenol and chloroform organic solvent was added for extraction to terminate the reaction. The aqueous phase was separated by centrifugation, the corresponding volume of 6 × DNA loading buffer was added, and then 0.8% agarose gel and 1 × TAE electrophoresis solution were used for electrophoresis at 110 V for 1 h. After electrophoresis, the gel was placed in a 0.5 μg/mL of ethidium bromide (EB) solution for 30 min, then recorded and photographed at 302 nm wavelength.
# HT29 xenograft = assay: HT29 nude xenograft model; type: in vivo, BALB/c nude mice; conditions: 15 mg/kg once a day p.o., 13 days
# Protocol: HT29 cells in the logarithmic growth phase were digested to a cell density of 8 × 10^6/mL, and 100 μL suspension of HT29 was injected subcutaneously in the right axilla of nude mice. The dose selection is based on previously described ([Xiaoling Hu et al., 2022]). When the average tumor volume reached about 300 mm^3, they were randomly divided into 3 groups: N53·HCl (15 mg/kg once a day, p.o.), N53 (15 mg/kg once a day, p.o.), control group. 15 mg/kg N53 and N53·HCl dissolved in normal saline containing 2.5% polyoxyethylene castor oil and 2.5% DMSO were administrated by oral medications, while the Control group was given an equal volume of blank solvent. The tumor volume was measured with a vernier caliper every other days and calculated the tumor volume according to Equation 1. After 13 days of treatment, the mice were sacrificed, the tumors were removed, the tumor weight was weighed, and the tumor growth inhibition rate was calculated. The calculation formula of tumor growth inhibition rate (TGI%) was calculated using Equation 2. The corresponding equations were as follows: Tumor volume mm^3=W^2×L/2 (1) TGI%=1−T−T0 / C−C0×100% (2)
# In equations, W and L represent the width and length of the tumor respectively, T and C represent the average volume of the experiment group and control group at the end of the experiment. T0 and C0 represent […].
# HCT116 = assay: MTT anti-proliferation assay, HCT116; type: cell-based, human; conditions: 72 h, read-out: IC50 ± SD HCT116
# Protocol: The anti-proliferation activities of synthesized compounds to colon cancer cell lines were measured by the MTT (3-[4,5-dimethyl-2-thiazolyl]-2,5-diphenyl-2H-tet razolium bromide) assay. First, the cell suspension was prepared by trypsin and the corresponding medium, cells were diluted to 5 × 10^5 cells/mL, and 96-well plates were added 200 μL per well. The plates were maintained at 37°C in a humidified atmosphere containing 5% CO2 overnight. Then compounds at gradient concentrations were added to cells in the logarithmic phase to make the final concentration at 0.5, 1, 2, 4, 8, 16, and 32 μM. The cells were treated with tested compounds for 72 h, and the growth curve assay was tested in 24 h. When the time was up, 20 μL of MTT solution (5 mg/mL in PBS) was added into each well to incubate for 4 h at 37°C. Then the supernatant liquid was removed, 150 μL DMSO was added into every well to dissolve formazan crystals and read the absorbance at 570 nm by Spark microplate spectrophotometer (Tecan, Swiss). The IC50 values were analyzed by IBM SPASS Statistics 25.0 software. The data are all derived from three parallel experiments (n = 3) and expressed as mean ± SD.
Compound,IC50 (SK-Hep-1; 72 h),Inhibition rate (%) of Topo I (100 μM) (Topo I),Body weight versus control group (HT29 xenograft),Tumor inhibition rate (TGI) (HT29 xenograft),IC50 (HCT116),"IC50 (SK-Hep-1; Homo sapiens, SK-HEP1, 72 h)"
"Cc1c(Cl)cccc1Nc1ccccc1C(=O)Nc1ccc(N2CCN(C)CC2)cc1 [Compound N53, 2-((3-chloro-2-methylphenyl)amino)-N-(4-(4-methylp-iperazin-1-yl)phenyl)benzamide]",5.66 ± 0.47 µM,11.7%,no significant difference in body weight,34.7%,3.89 ± 0.41 µM,–
"Cc1c(Cl)cccc1Nc1ccccc1C(=O)Nc1ccc(N2CCN(C)CC2)cc1 [N53·HCl, 4-(4-(2-((3-chloro-2-methylphenyl)amino)ben-zamido)phenyl)-1-methylpiperazin-1-ium]",–,55.1%,no significant difference in body weight,53.7%,10.9 ± 1.3 µM,8.18 µM
